What was measured:
[1] = system: IFN-beta, ISG15, CXCL10 transcripts in SKOV3, SKBR3, MCF7, HeLa, B16F10 cells; experiment: qRT-PCR transcript levels of interferon-stimulated genes / innate immune response in cancer cell lines; format: cell-based, human; conditions: cancer cells (Breast, Ovarian, Cervical, Melanoma); same doses bound and unbound
Protocol: SKOV-3 cells were treated with media alone (CTRL), 125 ng/ml of pI:pC, or 125 ng/mL of poly IC complexed with 250 ng/ml of PhG (poly IC:PhG) for 6 hours. Transcript levels were measured using qRT-PCR.
SKRBR-3 cells were treated with media alone (CTRL), 2.5 μg/mL of pI:pC, or 2.5 μg/mL of poly IC complexed with 5 μg/mL of PhG (poly IC:PhG) for 6 hours. Transcript levels were measured using qRT-PCR.
MCF-7 cells were treated with media alone (CTRL), 5 μg/mL of pI:pC, or 5 μg/mL of poly IC complexed with 10 μg/mL of PhG (poly IC:PhG) for 6 hours. Transcript levels were measured using qRT-PCR.
HeLa cells were treated with media alone (CTRL), 5 μg/mL of pI:pC, or 5 μg/mL of poly IC complexed with 10 μg/mL of PhG (poly IC:PhG) for 6 hours. Transcript levels were measured using qRT-PCR.
Hela cells were treated with media alone (CTRL), 5 μg/mL of pI:pC, or 5 μg/mL of poly IC complexed with 10 μg/mL of PhG (poly IC:PhG) for 6 hours. Transcript levels were measured using qRT-PCR. […]
Cells were plated in 6-well plates at 1×10E6 cells per well in DMEM and allowed to attach overnight. […] All transcripts were normalized to actin and quantified relative to mock treated.

[2] = system: pI:pC resistant SKOV-3 cells; experiment: Cell viability by alamar blue, carboplatin alone or combined with free or nanoparticle bound pI:pC; format: cell-based; conditions: carboplatin combination, 72 hours
Protocol: Twenty-four (24) hours post seeding, cells were left untreated, or treated with EC50 carboplatin, 125 ng/ml pI:pC, 125 ng/ml pI:pC ionically bound to glycogen nanoparticles (1:1 w/w), or the combination of EC50 carboplatin and 125 ng/ml pI:pC, or EC50 carboplatin and 125 ng/ml nanoparticle bound pI:pC, and cell viability was measured after 72 hours incubation.
Cell viability was measured by alamar blue of pI:pC resistant SKOV-3 cells treated with carboplatin alone, or in combination with “free” pI:pC or glycogen nanoparticle bound pI:pC. SKOV-3 cells were plated in a 12-well dish at 1.5×10^6 per well. Twenty-four (24) hours post seeding, cells were left untreated, or treated with EC50 carboplatin, 125 ng/ml pI:pC, 125 ng/ml pI:pC ionically bound to glycogen nanoparticles (1:1 w/w), or the combination of EC50 carboplatin and 125 ng/ml pI:pC, or EC50carboplatin and 125 ng/ml nanoparticle bound pI:pC. Cells were incubated at 37° C., 5% CO2 for 72 hours, and cell viability was measured by alamar blue assay according to the manufacturer's protocol (Invitrogen).

Substance: polyinosinic:polycytidylic acid [unbound pI:pC]
- innate immune response [1]: ineffective
- sensitization of pI:pC resistant cells to a chemotherapeutic drug [2]: ineffective

Reference: patent US20250032641A1, “IMMUNE- STIMULATING COMPOUNDS LINKED TO GLYCOGEN-BASED POLYSACCHARIDE NANOPARTICLES FOR SENSITIZING CANCER CELLS TO A CHEMOTHERAPEUTIC DRUG” (GLYSANTIS BIOTECH INC., priority 2020, published 2025)
